Source: ChEMBL document CHEMBL1201862, “PubChem BioAssay data set” (2004)
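Dose response: 5 concentrations. Exposure: 48 h. Format: 96-well plates. Endpoint: linear interpolation; highest concentration if not reached. GI50 marks 50% less growth.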 Calls of active or inactive are those of the source. Rule as the data show it: active = GI50 up to about 1.1 µM and inactive = higher.

Tests used:
Test in all cases: DTP human tumour cell line panel, 48 h
786-0 = system: 786-0
A498 = system: A498
ACHN = system: ACHN
BT-549 = system: BT-549
CAKI-1 = system: CAKI-1
COLO 205 = system: COLO 205
HCC 2998 = system: HCC 2998
HOP-62 = system: HOP-62
K562 = system: K562
M14 = system: M14
NCI-H226 = system: NCI-H226
NCI-H23 = system: NCI-H23
NCI-H460 = system: NCI-H460
OVCAR-3 = system: OVCAR-3
SF-539 = system: SF-539
SK-MEL-5 = system: SK-MEL-5
HT-29 = system: HT-29
OVCAR-8 = system: OVCAR-8
UACC-62 = system: UACC-62

Row | SMILES | GI50 (786-0) | GI50 (A498) | GI50 (ACHN) | GI50 (BT-549) | GI50 (CAKI-1) | GI50 (COLO 205) | GI50 (HCC 2998) | GI50 (HOP-62) | GI50 (K562) | GI50 (M14) | GI50 (NCI-H226) | GI50 (NCI-H23) | GI50 (NCI-H460) | GI50 (OVCAR-3) | GI50 (SF-539) | GI50 (SK-MEL-5) | GI50 (HT-29) | GI50 (OVCAR-8) | GI50 (UACC-62)
1 | CN(C)S(=O)(=O)n1cnc(CO)c1 | > 100 µM (inactive) | > 100 µM (inactive) | > 100 µM (inactive) | > 100 µM (inactive) | > 100 µM (inactive) | > 100 µM (inactive) | > 100 µM (inactive) | > 100 µM (inactive) | > 100 µM (inactive) | > 100 µM (inactive) | > 100 µM (inactive) | > 100 µM (inactive) | > 100 µM (inactive) | > 100 µM (inactive) | > 100 µM (inactive) | > 100 µM (inactive) | – | – | –
2 | Oc1cccc2c(Cl)ccnc12 | 10.9 µM (inactive) | 15.8 µM (inactive) | 1.99 µM (inactive) | 13.7 µM (inactive) | 2.39 µM (inactive) | 14.3 µM (inactive) | 4.43 µM (inactive) | 1.95 µM (inactive) | 0.42 µM (active) | 1.44 µM (inactive) | 7.45 µM (inactive) | 3.15 µM (inactive) | 3.08 µM (inactive) | 0.287 µM (active) | 2.11 µM (inactive) | 1.22 µM (inactive) | 9.51 µM (inactive) | 0.372 µM (active) | 0.362 µM (active)
3 | O=S(=O)(O)SCCNCCCCCC1CCCCC1 | 13.4 µM (inactive) | 25.1 µM (inactive) | 16.1 µM (inactive) | 14.9 µM (inactive) | 19 µM (inactive) | 16.6 µM (inactive) | 5.41 µM (inactive) | 7.43 µM (inactive) | 0.863 µM (active) | 4.95 µM (inactive) | 11.5 µM (inactive) | 10.4 µM (inactive) | 4.72 µM (inactive) | 5.87 µM (inactive) | 7.11 µM (inactive) | 15.8 µM (inactive) | 6.9 µM (inactive) | 10 µM (inactive) | 1.88 µM (inactive)
4 | Fc1ccc(C(OCCN2CC3CC2CN3)c2ccc(F)cc2)cc1 (stereo unspecified) | – | 44.9 µM (inactive) | > 100 µM (inactive) | > 100 µM (inactive) | > 100 µM (inactive) | 18.2 µM (inactive) | 16.4 µM (inactive) | > 100 µM (inactive) | 36 µM (inactive) | – | 59 µM (inactive) | > 100 µM (inactive) | 38.9 µM (inactive) | > 100 µM (inactive) | 29.6 µM (inactive) | 16.4 µM (inactive) | – | > 100 µM (inactive) | 19.5 µM (inactive)
5 | O=C(O)CC(Cc1ccc2c(c1)OCO2)C(=O)O (stereo unspecified) | > 100 µM (inactive) | > 100 µM (inactive) | > 100 µM (inactive) | > 100 µM (inactive) | – | > 100 µM (inactive) | > 100 µM (inactive) | > 100 µM (inactive) | > 100 µM (inactive) | > 100 µM (inactive) | > 100 µM (inactive) | > 100 µM (inactive) | > 100 µM (inactive) | > 100 µM (inactive) | > 100 µM (inactive) | > 100 µM (inactive) | > 100 µM (inactive) | > 100 µM (inactive) | > 100 µM (inactive)
6 | O=c1c(-c2ccccc2)c(SCCCN2CCN(c3cccc(Cl)c3)CC2)n(-c2ccccc2)c(=S)n1-c1ccccc1 | – | > 100 µM (inactive) | > 100 µM (inactive) | > 100 µM (inactive) | 25.6 µM (inactive) | > 100 µM (inactive) | > 100 µM (inactive) | > 100 µM (inactive) | > 100 µM (inactive) | – | > 100 µM (inactive) | > 100 µM (inactive) | > 100 µM (inactive) | > 100 µM (inactive) | > 100 µM (inactive) | > 100 µM (inactive) | 80.9 µM (inactive) | > 100 µM (inactive) | > 100 µM (inactive)
7 | COc1cc(/C=C/C(=N\NC(N)=S)c2sc(NNC(C)=O)nc2C)ccc1O | > 100 µM (inactive) | > 100 µM (inactive) | > 100 µM (inactive) | > 100 µM (inactive) | > 100 µM (inactive) | > 100 µM (inactive) | > 100 µM (inactive) | > 100 µM (inactive) | > 100 µM (inactive) | > 100 µM (inactive) | > 100 µM (inactive) | > 100 µM (inactive) | > 100 µM (inactive) | > 100 µM (inactive) | > 100 µM (inactive) | > 100 µM (inactive) | > 100 µM (inactive) | > 100 µM (inactive) | > 100 µM (inactive)
8 | CCOC(=O)/C=C(\N=P(c1ccccc1)(c1ccccc1)c1ccccc1)C(F)(F)C(F)(F)C(F)(F)C(F)(F)C(F)(F)F | > 100 µM (inactive) | 0.0675 µM (active) | 47.8 µM (inactive) | > 100 µM (inactive) | > 100 µM (inactive) | > 100 µM (inactive) | > 100 µM (inactive) | > 100 µM (inactive) | > 100 µM (inactive) | > 100 µM (inactive) | – | > 100 µM (inactive) | > 100 µM (inactive) | > 100 µM (inactive) | > 100 µM (inactive) | > 100 µM (inactive) | > 100 µM (inactive) | – | > 100 µM (inactive)
9 | CCOC(=O)CCC(NC(=O)OCc1ccccc1)C(=O)NC(CCC(=O)OCC)C(=O)NC(CCC(=O)OCC)C(=O)NC(CCC(=O)OCC)C(=O)NC(CCC(=O)OCC)C(=O)NC(CCC(=O)OCC)C(=O)NC(CCC(=O)OCC)C(=O)OCC (stereo unspecified) | > 100 µM (inactive) | 84.9 µM (inactive) | > 100 µM (inactive) | > 100 µM (inactive) | > 100 µM (inactive) | – | 26.1 µM (inactive) | > 100 µM (inactive) | > 100 µM (inactive) | > 100 µM (inactive) | > 100 µM (inactive) | > 100 µM (inactive) | > 100 µM (inactive) | 86.9 µM (inactive) | – | > 100 µM (inactive) | > 100 µM (inactive) | > 100 µM (inactive) | > 100 µM (inactive)
10 | O=c1c(C(c2ccc3ccccc3c2)c2c(O)oc3cc(O)ccc3c2=O)c(O)oc2cc(O)ccc12 | > 100 µM (inactive) | > 100 µM (inactive) | – | 54.2 µM (inactive) | > 100 µM (inactive) | > 100 µM (inactive) | > 100 µM (inactive) | > 100 µM (inactive) | 30.5 µM (inactive) | > 100 µM (inactive) | > 100 µM (inactive) | > 100 µM (inactive) | 41.3 µM (inactive) | 80 µM (inactive) | 84.1 µM (inactive) | > 100 µM (inactive) | > 100 µM (inactive) | 71 µM (inactive) | > 100 µM (inactive)
11 | CNC(C)C(O)c1ccc2oc3cc(=O)c4ccccc4c-3nc2c1 (stereo unspecified) | – | 24 µM (inactive) | 6.25 µM (inactive) | 7.76 µM (inactive) | 16.1 µM (inactive) | 35.9 µM (inactive) | 27.9 µM (inactive) | 5.82 µM (inactive) | 2.72 µM (inactive) | 4.65 µM (inactive) | – | 4.3 µM (inactive) | 4.67 µM (inactive) | 11.9 µM (inactive) | 1.45 µM (inactive) | 2.48 µM (inactive) | 36.3 µM (inactive) | 6.15 µM (inactive) | 3.82 µM (inactive)
12 | CN1CCC2(CC1)C(=O)N(N1CCCCCC1)C(=O)N2c1ccccc1 | > 100 µM (inactive) | 34.7 µM (inactive) | > 100 µM (inactive) | > 100 µM (inactive) | > 100 µM (inactive) | > 100 µM (inactive) | > 100 µM (inactive) | > 100 µM (inactive) | > 100 µM (inactive) | > 100 µM (inactive) | > 100 µM (inactive) | > 100 µM (inactive) | > 100 µM (inactive) | > 100 µM (inactive) | > 100 µM (inactive) | > 100 µM (inactive) | 60.5 µM (inactive) | 78 µM (inactive) | 96.6 µM (inactive)
13 | CC(C)c1cc2c(c(O)c1O)[C@@]1(C)CCCC(C)(C)C1=C(O)C2 | 2.51 µM (inactive) | 1.12 µM (active) | 1.57 µM (inactive) | 1.36 µM (inactive) | 1.05 µM (active) | 2.84 µM (inactive) | 1.01 µM (active) | 2.78 µM (inactive) | 1.6 µM (inactive) | 2.36 µM (inactive) | > 50 µM (inactive) | 1.54 µM (inactive) | 1.51 µM (inactive) | 1.38 µM (inactive) | 0.726 µM (active) | 1.03 µM (active) | 6.75 µM (inactive) | 1.54 µM (inactive) | 31.8 µM (inactive)
14 | CN(C)Cc1cc(/C=C/C(=O)c2ccc(Cl)c(Cl)c2)cc(CN(C)C)c1O | 9.4 µM (inactive) | 16.1 µM (inactive) | 12.8 µM (inactive) | 7.74 µM (inactive) | 9.02 µM (inactive) | 11.2 µM (inactive) | 6.35 µM (inactive) | 15.5 µM (inactive) | 25.2 µM (inactive) | 13 µM (inactive) | – | – | 10.4 µM (inactive) | 10.3 µM (inactive) | 6.92 µM (inactive) | 11.7 µM (inactive) | 10.8 µM (inactive) | 13.6 µM (inactive) | 14.3 µM (inactive)
15 | COC(=O)C1(NC(=O)C(CC(=O)OCc2ccccc2)NC(=O)OCc2ccccc2)CCCCCCC1 (stereo unspecified) | 63.8 µM (inactive) | 13.6 µM (inactive) | 34.4 µM (inactive) | 23.9 µM (inactive) | 31.1 µM (inactive) | 25.8 µM (inactive) | – | > 100 µM (inactive) | 10.2 µM (inactive) | 34.4 µM (inactive) | 40.3 µM (inactive) | 46.6 µM (inactive) | 30.7 µM (inactive) | 60.1 µM (inactive) | 49.7 µM (inactive) | 13.8 µM (inactive) | 24.6 µM (inactive) | 26.4 µM (inactive) | 24.3 µM (inactive)
